Test results from patent EP0414895A1, “OROTATE OF $g(a)-AMINO-$g(b)-PHENYL-BUTYRIC ACID” (NAUCHNO-PROIZVODSTVENNOE OBIEDINENIE "BIOLAR", priority 1989, dated 1990).
Counter-ions that a name gives are not always drawn.

Columns and labels:
Mäuse [1] = experiment: Kalziumchlorid arrhythmia model, LD50 of Kalziumchlorid; format: in vivo; settings: Kalziumchlorid i.v. combined with compound 50 mg/kg
Method: Die antiarrhythmischen Eigenschaften der erfindungsgemässen Verbindung wurden auch am Modell der Kalziumchloridarrhythmie untersucht. Der Mäusengruppe (I0 Gruppe) wurde einmalig die Kalziumchloridlösung intravenös im einzelnen und in Kombination mit γ -Amino-β -phenylbuttersäurehydrochlorid eingeführt. Die Dosis der letzteren betrug 50 mg/kg. Es wurde LD₅₀ für Kalziumchlorid bestimmt.

[2] = Solubility (description of the substance); format: physicochemical
Mäuse [3] = experiment: Ethanol intoxication, survival; format: in vivo
Text: Es wurde auch der Einfluss der erfindungsgemässen Verbindung auf die durch Athanol erzeugte Intoxikation untersucht. In den Versuchen an Mäusen (in jedem Versuch wurde eine Gruppe von I0 Tieren untersucht) wurde die Überlebensdauer der Tiere bestimmt. […] Athanol wurde I Stunde nach der Einführung der neuen Verbindung verabreicht. Die Ergebnisse dieser Untersuchung sind in der Tabelle 2 dargestellt.

Mäuse [4] = experiment: Hypoxia in barochamber (11000 m), survival; format: in vivo
Method: Nach einer der Methoden wurden die Mäuse in der Barokammer untergebracht, die für die Höhe von II000 m über dem Meeresspiegel gehoben wurde. Die Hebung wurde mit einer Geschwindigkeit von 50 m/s verwirklicht. Der atmosphärische Tiefdruck wurde mit Hilfe der elektrischen Vakuumpumpe geschaffen.
Die beanspruchte Verbindung, Natriumoxybutyrat und Pyrazetam wurden 60 min vor dem Versuch enteral eingeführt. Der Schutzeffekt wurde nach der Überlebensdauer eingeschätzt. Die Angaben sind in Tabelle I0 angeführt.

Ratten = experiment: Acute toxicity, rats; format: in vivo; settings: intraperitoneal
Method: (§1) Die akute Toxizität der beanspruchten Verbindung wurde an Mäusen und Ratten (die Gruppe aus 9 bis I2 Tieren) bei der intravenösen, intraperitonealen Einführung der beanspruchten Verbindung sowie bei deren Einführung in den Magen bestimmt.
(§2) Es wurden der letale Ausgang, der Allgemeinzustand, die Vergiftungssymptome registriert. LD₅₀ wurde nach der Methode von Lichtfield und Wilcoxon bestimmt. LD₅₀ der neuen Verbindung beträgt für Mäuse bei der intravenösen Einführung 580 mg/kg, bei der intraperitonealen Einführung I450 mg/kg, bei der Einführung in den Magen 4600 mg/kg; für Ratten bei der intraperitonealen Einführung beträgt LD₅₀ 883 mg/kg, bei der Einführung in den Magen - über I500 mg/kg.

Mäuse [5] = experiment: Acute toxicity, mice; format: in vivo
Method: as §1, §2

Mäuse [6] = experiment: Anticonvulsant effect against Pikrotoxin, Bicucullin, Korazol, Thiosemikarbazid; format: in vivo
Text: Ausserdem wurde die krampflösende Wirkung der neuen Verbindung untersucht. Die Untersuchung wurde an männlichen weissen Mäusen bei der Einführung von Pikrotoxin, Bicucullin, Korazol, Thiosemikarbazid durchgeführt.

[7] = male white mice, convulsants Pikrotoxin, Bicucullin, Korazol, Thiosemikarbazid

Molecule | Einfluss auf LD₅₀ von Kalziumchlorid (Mäuse [1]) | Löslichkeit in wässrigen Alkalilösungen ([2]; aqueous alkali solutions) | Wasserlöslichkeit ([2]; water) | Überlebensdauer nach der Einführung von Äthanol (Mäuse [3]; 50 mg/kg enteral chronic, 14 days + Äthylalkohol 11 ml/kg) | Überlebensdauer nach der Einführung von Äthanol (Mäuse [3]; 50 mg/kg single + Äthylalkohol 11 ml/kg) | Verlängerung der Überlebensdauer der Tiere (Mäuse [3]; chronic administration, ethanol intoxication) [%] | Überlebensdauer (Mäuse [4]; 50,0 mg/kg enteral 60 min before) | Überlebensdauer (Mäuse [4]; 100,0 mg/kg enteral 60 min before) | Überlebensdauer (Mäuse [4]; 200,0 mg/kg enteral 60 min before) | LD₅₀ (Ratten) [mg/kg] | LD₅₀ (Mäuse [5]; into the stomach) [mg/kg] | LD₅₀ (Mäuse [5]; intravenous) [mg/kg] | krampflösende Wirksamkeit (Mäuse [6]; Dosen von 50 bis 200 mg/kg) | Anteil von Tieren, bei denen der Krampf beobachtet wurde (Mäuse [6]; [7]) | Krampflatenzzeit (Mäuse [6]; [7])
NCC(CC(=O)O)c1ccccc1 (stereo not drawn) [γ-Amino-β-phenylbutter-säurehydrochlorid, γ -Amino- β -phenylbuttersäurehydrochlorid, reference compound] | keinen Einfluss |  |  |  |  |  |  |  |  |  |  |  |  |  | 
γ -Amino- β -phenylbuttersäureorotat [Erfindungsgemässe Verbindung] |  | löslich | schwer wasserlöslich | 283,8±16 sec | 213,6±8 sec | 30 | 6,2±1,4 min | 7,5±2,1 min | 15,2±1,8 min | 883 | 4600 | 580 | keine ausgeprägte krampflösende Wirksamkeit | verringert nicht | verlängert sicher
